Entries after “also recorded” stand apart in the source; their conditions may differ.

In assay [1] the target is PMN myeloperoxidase (Homo sapiens, UniProt P05164). Description: Myeloperoxidase activity of PMNs. To be noted: 10^4 PMNs, 20 μM calpeptin.
Assay [2] deals with PMNs. In words: PMN migration across a porous Transwell without epithelial cells. It counts as cell-based, human. Also noted: dose or concentration left out as unconfirmed. To be noted: in response to live PAO1, heat-killed PAO1 or fMLP.
The target in assay [3] is T1, recombinant human myeloperoxidase (Homo sapiens, UniProt P05164).
T1 construct: purchased R&D
T1 sequence (P05164 49-745): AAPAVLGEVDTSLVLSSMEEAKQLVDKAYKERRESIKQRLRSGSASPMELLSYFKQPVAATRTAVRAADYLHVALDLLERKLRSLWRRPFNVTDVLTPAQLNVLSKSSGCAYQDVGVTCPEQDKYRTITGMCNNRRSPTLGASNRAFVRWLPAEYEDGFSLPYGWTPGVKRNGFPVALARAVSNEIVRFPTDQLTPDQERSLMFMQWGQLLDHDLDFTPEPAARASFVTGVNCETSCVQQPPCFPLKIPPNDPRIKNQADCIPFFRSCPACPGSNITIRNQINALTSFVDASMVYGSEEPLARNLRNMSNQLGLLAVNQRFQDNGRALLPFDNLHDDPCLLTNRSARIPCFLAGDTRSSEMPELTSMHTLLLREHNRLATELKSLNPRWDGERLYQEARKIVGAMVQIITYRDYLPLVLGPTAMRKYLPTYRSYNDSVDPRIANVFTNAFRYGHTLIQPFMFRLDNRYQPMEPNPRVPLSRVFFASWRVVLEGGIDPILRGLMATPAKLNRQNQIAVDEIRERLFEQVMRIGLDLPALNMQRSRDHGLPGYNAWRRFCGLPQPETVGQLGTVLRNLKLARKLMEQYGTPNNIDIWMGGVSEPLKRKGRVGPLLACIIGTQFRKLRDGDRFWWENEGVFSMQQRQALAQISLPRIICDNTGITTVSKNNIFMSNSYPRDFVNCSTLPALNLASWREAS
Description: Myeloperoxidase assay with recombinant enzyme. The format is biochemical. Particulars: 0.0125 μg/ml enzyme, 20 μM calpeptin.

The subject of assay [4] is PMN recruitment into the lung. Description: Neonatal mouse model of intranasal P. aeruginosa PAO1 infection. It counts as in vivo. The protocol:
Seven day old C57BL/6 wild type or tlr2^−/− mice (Jackson Laboratories) were intranasally inoculated with 10 μl PAO1 (10^8 CFU) (Tang et al, 1996). Control mice received 10 μl of PBS. Mice were pretreated with 20 mg/kg calpeptin or DMSO in PBS by intraperitoneal (i.p.) route 16 h and 2 h before intranasal inoculation and a third dose was administered by i.p. route 30 min post infection. Lungs were harvested 4 h after infection and cell suspensions used for PMN detection and immunoblotting. For neutrophil detection, lung cell suspensions were double stained with phycoerythrin (PE)-labeled anti-CD45 (to detect leukocytes) and fluorescein isothiocyanate (FITC)-labeled anti-Ly6G antibodies (to detect neutrophils) (BD Pharmingen) and analyzed by flow cytometry with a FACSCalibur using Cell Quest software (Becton Dickinson) (Gomez et al, 2004). Irrelevant, isotype-matched antibodies were used as a control. Cells were gated on the basis of their forward scatter and side scatter profile and analyzed for double expression of CD45 and Ly6G. Immunoblots were performed on 10 μg of protein obtained by lysing lung cells in OGP buffer as described herein for 1HAEo-cells. Mice protocol number AAAA5999 was approved by the Institutional Animal Care and Use Committee at Columbia University.

Assay [5] has as its system PMN recruitment into the lung and airway lumen. Description: Adult C57BL/6 mouse P. aeruginosa infection with bronchoalveolar lavage. Particulars: adult C57BL/6, i.p. calpeptin, 2 hr infection, versus vehicle. The format is in vivo. The protocol: To test the effects of calpain inhibition on the transmigration of PMNs into P. aeruginosa-infected airways, bronchoalveolar lavage (BAL) experiments were performed on adult C57BL/6 mice. Mice were treated with i.p. calpeptin or vehicle and intranasally infected with P. aeruginosa for 2 hr. PMNs from BAL or whole-lung suspension were quantified by flow cytometry. Compared to vehicle-treated controls, calpeptin-treated mice had 37% fewer PMNs recruited into the whole lung and 90% fewer into the airway lumen, indicating a more pronounced effect on the epithelial junctions (FIG. 8D). […] Thus, recruitment of PMNs into the murine lung and airway lumen in response to P. aeruginosa is facilitated by calpain activity and its effects on junctional proteins at the mucosal surface.

For assay [6], the system named is PMN transmigration across 16HBE airway epithelial monolayers. Description: PMN transmigration across polarized 16HBE monolayers (myeloperoxidase readout). The format is cell-based, human. To be noted: 20 μM calpeptin. An excerpt:
Human PMNs were isolated according to standard techniques from venous blood from healthy consenting adults in accordance with a protocol approved by the Institutional Review Board of Human Subjects at Columbia University (IRB-AAAC5450). PMNs were isolated using dextran sedimentation and Hypaque-Ficoll (Sigma) density-gradient separation, followed by hypotonic lysis of erythrocytes as previously described (Boyum et al, 1968). Purified PMNs were resuspended in HBSS with Ca^2+ and Mg^2+ before use in migration experiments. Migration assays were performed across 16HBE monolayers plated on the underside of 3 μm transwells which were coated with minimal essential media containing 0.01 mg/ml fibronectin, 0.03 mg/ml bovine collagen type I, 0.1 mg/ml BSA. After allowing the cells to adhere overnight, transwells were flipped over and inserted into 24-well plates. 500 μl of media was added to the lower chamber (apical surface of the cell) and 100 μl of media added to the transwell (basolateral surface of the cell). When the cells became confluent, they were polarized with an air liquid interface for 5 days by removing the 500 μl of media in the lower chamber. Selected wells were preincubated for 30 min with 20 μM calpeptin in the apical and basolateral chambers. Monolayers were stimulated with 250 μl heat killed PAO1 (10^7 CFU) or […] […]

`CCCC[C@@H](C=O)NC(=O)[C@H](CC(C)C)NC(=O)OCc1ccccc1` [calpeptin, Z-Leu-Nle-CHO]: the “Myeloperoxidase activity / production by PMNs” value in assay [1] is given as “not inhibited”. Also, in assay [2], the “Migration of PMNs across a porous Transwell (without epithelial cells)” value is reported as “no effect; also recorded: not affected”. The “Migration of PMNs across a porous Transwell (without epithelial cells)” value in assay [2] (listed as Calpeptin) is “did not directly inhibit”. In addition, the “Myeloperoxidase activity of recombinant human myeloperoxidase” value in assay [3] is “nor did calpeptin inhibit; also recorded: not inhibited”. In assay [4] (7-day old mice, i.p. calpeptin, 4 hours following intranasal P. aeruginosa, versus vehicle-treated, p<0.05), the “Fewer PMNs recruited into the lung” value is 31%. Further, the “Occludin and E-cadherin cleavage products in whole lung lysates” value in assay [4] (infected wild type mice, i.p. calpeptin versus vehicle) was “substantially decreased”. Further, the “PMN recruitment in tlr2−/− animals” value in assay [4] (tlr2−/− pups, calpain inhibition) is on record as “not further diminished”. Besides, in assay [5], the “Fewer PMNs recruited into the airway lumen (BAL)” value is recorded as 90% and the “Fewer PMNs recruited into the whole lung” value amounted to 37%. Moreover, the “Heat killed P. aeruginosa PAO1 induced PMN transmigration” value in assay [6] (p<0.001) is given as “inhibited”. Moreover, the “P3C-induced PMN transmigration” value in assay [6] (p<0.05) is “inhibited”.
